Values quoted from earlier work as cited in patent US20170327462A1, “(Z)-3,4,5-TRIMETHOXYSTYRYLBENZENESULFONAMIDES AS POTENTIAL ANTICANCER AGENTS” (COUNCIL OF SCIENTIFIC & INDUSTRIAL RESEARCH, priority 2014, published 2017).

System: tubulin
Conditions: binding at colchicine binding site; J. Med. Chem. 2008, 51, 6211; cited from earlier work

Question: Which “inhibition of tubulin polymerization relative to CA-4” value does the source give for `COc1cc(/C=C\c2ccc(OC)c(N)c2)cc(OC)c1` [(Z)-5-(3,5-dimethoxystyryl)-2-methoxyaniline] here?
Answer: five times stronger than CA-4
